Experimental data taken from article PMC11459959, “Discovery of new acetamide derivatives of 5-indole-1,3,4-oxadiazol-2-thiol as inhibitors of HIV-1 Tat-mediated viral transcription” (Antimicrobial Agents and Chemotherapy, 2024).
Like-named read-outs stand apart in the source and are kept apart here.

Columns and labels:
HIV-1NL4-3 [1] = test: Time-of-addition assay in TZM-bl cells; type: cell-based; settings: HIV-1NL4-3 MOI 1, 9 and 13 1.5 μM, T-20 1 µM, triptolide 5 nM, ARVs 1 µM, F-Luc at 54 h
Cell viability of PBMCs = type: cell-based; settings: human
Experimental: (§1) The p24 level from the cell supernatant was subsequently determined using a p24 […] kit (PerkinElmer). In parallel, the cell viability was determined without viral infection because of the viral cytopathic effect. […] In parallel, cell viability was determined. The data (A and B) are presented as the mean ± SD (n = 3). (C) PBMCs (4 × 10^5) infected with HIV-AD8 at an MOI of 0.1 were treated with 1.5 µM of the compounds or ARVs for 3 days. The levels of p24 and cell viability were subsequently determined. (D) J1.1 cells were cultured with the compounds ([…]) under 50 ng/mL phorbol myristate acetate (PMA) treatment for 2 days. The level of p24 was subsequently determined. (E) J-Lat 6.3 cells were treated with the compounds (1.5 µM) under 1 µg/mL of PMA for 2 days. The GFP-positive cell population was analyzed using flow cytometry. The data are represented as a value relative to the DMSO-treated vehicle (D) and a percent of the GFP^+ cell population (E) as mean ± SD (n = 3).
(§2) The inhibitory effects of the compounds on viral replication were determined with some minor modifications, as previously described ([12], [62]). […] PBMCs (4 × 10^5) pre-activated with PHA-M for 3 days were washed with fresh media to remove excess PHA-M and subsequently infected with HIV-1NL4-3 or HIV-1AD8 or PIs-resistant HIV-1 strains as A3.01 infection. After infection, the infectious media were replaced with fresh media supplemented with international 10 units (IU)/mL of IL-2 and the indicated compounds. At 72 h after infection, the inhibitory effect of the compounds on viral replication was determined by measuring the p24 amount, an HIV capsid protein, using an HIV-1 p24 […] kit (PerkinElmer, Waltham, MA, USA). Cell viability was determined as described above. The inhibitory effects on provirus reversing in J1.1 and J-Lat 6.3 cells were determined as previously described ([12], [41], [63]) with some minor modifications. Briefly, 5 × 10^4 persistently HIV-1-infected J1.1 or J-Lat 6.3 cells were cultured in either the presence or absence of the compounds at a final concentration of 1.5 µM and treated with PMA (50 ng/mL for J1.1 cells, 1 µg/mL for J-Lat 6.3 cells). Two days after treatment, the levels of viral production were determined using p24 […] for J1.1 cells and flow cytometry analysis for GFP-expressing J-Lat 6.3 cells.

HIV-1NL4-3 [2] = test: HIV-1 replication in PBMCs (p24 […]); type: cell-based; settings: for EC50: Human immunodeficiency virus 1, PBMC, 72 h
Experimental: as §1, §2

[3] = test system: proviral DNA integrated to the host chromosome; test: Integrated proviral DNA, nested Alu-PCR in A3.01 cells; type: cell-based, HIV-1; settings: compounds 5 µM, 40 h after infection
Experimental: Fig 5 (A) Time-of-addition assay. […] Subsequently, the cells were treated with the compounds at the indicated time points (0, 1, 2, 4, 6, 8, 10, 12, 24, 30, 36, 42, and 48 h) after HIV-1 infection. The final concentrations of compounds are described in Materials and Methods. Viral activity according to the timing of drug addition was measured as F-Luc activity at 54 h after infection. The relative activities are represented as the mean ± SD (n = 3) compared with the activity observed 54 h post-infection. The relative time frames associated with each HIV-1 infection step are defined based on the time frame of susceptibility to the drug that blocks that particular infection step. […] At 16 h after infection, the viral reverse transcription (RT) product (viral cDNA) level was determined by quantitative real-time PCR (RT-qPCR) using gag and 18S rRNA primer sets and represented as the mean ± SD (n = 3) normalized against the amount of the 18S rRNA compared with the DMSO control. **P < 0.01 compared with the vehicle (DMSO). (C) An in vitro integrase (IN) assay was performed with 10 µM of the indicated compounds following the manufacturer’s protocol. **P < 0.01 compared with vehicle (DMSO). (D) A3.01 cells were infected with HIV-1 upon treatment with the indicated compounds (5 µM) and ARVs (EFV and DTG) as the experimental controls. At 40 h after infection, cellular chromosomal DNA was purified, and the integrated proviral DNA was detected through nested Alu-PCR amplification.
The activity of HIV-1 RT was determined as previously described with some minor modifications ([66][–][68]). In brief, HIV-1NL4-3 obtained from plasmid transfection was treated with DNase I (2.5 U/mL) for 2 h at 37°C to remove the plasmid DNA. […] Sixteen hours after infection, the cell cytosolic DNA was isolated under RNase A treatment, and the RT products (cytosolic viral cDNA) were quantified using RT-qPCR and the following primers: gag forward, 5′-[…]-3′, gag reverse, 5′-[…]-3′; 18S rRNA forward, 5′-[…]-3′, 18S rRNA reverse, 5′-[…]-3′. The relative levels of RT products were analyzed using the ΔΔCt-method, as described above. In vitro integrase activity was determined using an HIV-1 integrase assay kit (XpressBio, Frederick, MD, USA) as previously described ([12]). In brief, a 96-well plate coated with donor substrate DNA was blocked, and HIV-1 integrase was then added to the plate. Subsequently, the compounds and target substrate DNA were added to the plate and incubated for 30 min at 37°C. The plate was washed and subsequently incubated with horse radish peroxidase. Integrase activity was measured by the peroxidase activity with the substrate at an optical density of 450 nm. The experiment was performed in triplicates. Detection of integrated proviral DNA was performed as previously described ([69]) with some minor modifications. […] Chromosomal DNA was purified using the G-Spin DNA extraction kit (Intron Bio Tech, Seongnam-si, Gyeonggi-do, Republic of Korea). The integrated proviral HIV-1 DNA was detected by nested Alu-PCR amplification using the following primers: first round PCR, Alu forward, 5′-[…]-3′, pol reverse, 5′-[…]-3′; second round PCR, gag forward, 5′-[…]-3′, pol reverse. gapdh was used as the control gene.

[4] = PBMCs, absence of HIV-1 infection, mean ± SD, read-out: CC50
[5] = HIV-1NL4-3 MOI 0.1, 3 days, p24, read-out: EC50
[6] = HIV-1NL4-3 MOI 0.1, 3 days, p24, mean ± SD, read-out: EC50
[7] = Table S1, WT virus, 10-fold serial dilution, p24, 3 days, read-out: EC50

SMILES	time of administration after infection at which effectiveness began to decrease / was lost (HIV-1NL4-3 [1])	CC50 at 3 days (Cell viability of PBMCs; [4])	SI (CC50/EC50) (HIV-1NL4-3 [2])	EC50 (HIV-1NL4-3 [2]; [5])	CC50 at 3 days (Cell viability of PBMCs)	nested Alu-PCR band for integrated proviral DNA [3]	EC50 (HIV-1NL4-3 [2]; [6])	EC50 (HIV-1NL4-3 [2]; [7])
CC(C)[C@]12O[C@H]1[C@@H]1O[C@]13[C@]1(O[C@H]1C[C@H]1C4=C(CC[C@@]13C)C(=O)OC4)[C@@H]2O [triptolide, reference compound]	24 h	0.19 µM	11.23	16.9 ± 3.75 nM	–	–	–	–
Cc1[nH]c2ccc(-c3nnc(SCC(=O)N4CCCCC4)o3)cc2c1C [Compound 9, 2-((5-(2,3-Dimethyl-1H-indol-5-yl)-1,3,4-oxadiazol-2-yl)thio)-1-(piperidin-1-yl)ethan-1-one]	24 h	–	315.14	–	44.1 ± 3.71 µM	observed	140 ± 10 nM	100 nM
Cc1[nH]c2ccc(-c3nnc(SCC(=O)N4CCCC4)o3)cc2c1C [Compound 13, 2-((5-(2,3-Dimethyl-1H-indol-5-yl)-1,3,4-oxadiazol-2-yl)thio)-1-(pyrrolidin-1-yl)ethan-1-one]	24 h	–	282.81	–	45.2 ± 5.69 µM	observed	160 ± 20 nM	100 ± 10 nM
C[C@@H]1CCO[C@H]2Cn3cc(C(=O)NCc4ccc(F)cc4F)c(=O)c(O)c3C(=O)N12 [DTG, dolutegravir, reference compound]	10 h	–	>18,270	< 1 nM	18.3 ± 0.58 µM	not detected	–	–
O=C1Nc2ccc(Cl)cc2[C@@](C#CC2CC2)(C(F)(F)F)O1 [EFV, efavirenz, reference compound]	8 h	29.5 ± 3.62 µM	>29,460	< 1 nM	–	not detected	–	–
